Laboratory results published in patent publication US10711036B2, “MALT1 inhibitors and uses thereof” (Cornell University, priority 2015, dated 2020).
Where a SMILES comes first, the peptide text is derived from it. [ ]: non-standard residue; d: D form. The star is where a group is joined. Chg = N[C@H](C(=O)O)C1CCCCC1; Phg = N[C@H](C(=O)O)c1ccccc1; NMeV = CN[C@H](C(=O)O)C(C)C; αMeP = C[C@@]1(C(=O)O)CCCN1; Pip = O=C(O)[C@@H]1CCCCN1; 3Abz = Nc1cccc(C(=O)O)c1; ClZ = O=C(OCc1ccccc1Cl)*; Cbz = O=C(OCc1ccccc1)*; PhAc = O=C(Cc1ccccc1)*; Bz = O=C(c1ccccc1)*; CH2F = FC*

Assays:
OCI-LY3 = experiment: Cell growth inhibition assay (CellTiter-Glo, 96 hours), OCI-LY3; format: cell-based, human; settings: OCI-LY3 cells, treated at t=0 and t=48 hours, ATP luminescence
Method: DLBCL cell lines were grown in exponential growth conditions during the 96 hours of treatment. Cells were treated twice: at t=0 and t=48 hours, and cell viability was determined by ATP quantification using a luminescent method ([…]-GLO, Promega, Madison, Wis.). Cell viability in drug-treated cells was normalized to vehicle controls (fractional viability) and results are given as 1-fractional viability.
Experiments were Performed in Triplicate.

MALT1 = MALT1 (Homo sapiens (Human), UniProt Q9UDY8); experiment: Inhibition constants (Ki) for inhibition of MALT1; format: biochemical; settings: 100 nM MALT1 used for the assay
Method: For exemplary compounds of the disclosure, Ki for inhibition of MALT1 was measured (Table E11). A concentration of 100 nM MALT1 was used for the assay.

MALT1, sequence (Q9UDY8 whole entry): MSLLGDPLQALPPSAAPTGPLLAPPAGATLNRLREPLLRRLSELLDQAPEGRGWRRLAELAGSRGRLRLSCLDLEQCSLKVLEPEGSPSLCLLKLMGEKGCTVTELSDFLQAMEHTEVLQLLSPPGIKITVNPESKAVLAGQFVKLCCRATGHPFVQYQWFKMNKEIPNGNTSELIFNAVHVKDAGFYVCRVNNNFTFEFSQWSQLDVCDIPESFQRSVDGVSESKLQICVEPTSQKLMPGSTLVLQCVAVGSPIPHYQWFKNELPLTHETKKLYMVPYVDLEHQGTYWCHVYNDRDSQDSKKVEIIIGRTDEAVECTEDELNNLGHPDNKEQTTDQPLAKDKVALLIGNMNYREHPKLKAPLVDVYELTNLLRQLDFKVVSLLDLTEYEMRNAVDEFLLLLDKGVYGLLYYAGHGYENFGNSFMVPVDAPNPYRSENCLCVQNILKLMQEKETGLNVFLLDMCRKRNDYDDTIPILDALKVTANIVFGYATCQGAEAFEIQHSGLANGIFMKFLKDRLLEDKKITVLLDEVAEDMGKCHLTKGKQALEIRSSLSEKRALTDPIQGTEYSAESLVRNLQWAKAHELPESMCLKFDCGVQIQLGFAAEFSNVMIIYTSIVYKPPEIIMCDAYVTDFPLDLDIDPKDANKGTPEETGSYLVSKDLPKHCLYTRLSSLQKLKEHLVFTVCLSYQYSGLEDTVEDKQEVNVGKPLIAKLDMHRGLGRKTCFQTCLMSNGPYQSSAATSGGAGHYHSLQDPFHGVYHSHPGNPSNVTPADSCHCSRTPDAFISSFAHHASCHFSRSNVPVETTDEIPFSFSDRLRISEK

GI50 (OCI-LY3; Homo sapiens) | Ki (MALT1) | GI50 (OCI-LY3) | SMILES
2000 nM | 75 nM |  | COc1cccc(C(=O)N[C@H](C(=O)N2CCC[C@H]2C(=O)N[C@@H](CCCNC(=N)N)C(=O)CF)C(C)C)c1 [Compound 122]
1700 nM | 110 nM |  | CC(C)[C@H](NC(=O)c1ccc2ccncc2c1)C(=O)N1CCC[C@H]1C(=O)N[C@@H](CCCNC(=N)N)C(=O)CF [Compound 158]
120 nM | 20 nM |  | CC(C)[C@H](NC(=O)c1ccc(Br)cc1)C(=O)N1COC[C@H]1C(=O)N[C@@H](CCCNC(=N)N)C(=O)CF [Compound 174]
2300 nM | 76 nM |  | N=C(N)NCCC[C@H](NC(=O)[C@@H]1CCCN1C(=O)[C@H](Cc1ccccc1)NC(=O)OCc1ccccc1)C(=O)CF [Compound 182]
8430 nM | 146 nM |  | N=C(N)NCCC[C@H](NC(=O)[C@@H]1CCCN1C(=O)[C@H](NC(=O)OCc1ccccc1)c1cccnc1)C(=O)CF [Compound 106]
 | 64 nM |  | CC(C)[C@H](NC(=O)c1ccc(Br)cc1)C(=O)N[C@@H](CO)C(=O)N[C@@H](CCCNC(=N)N)C(=O)CF [Compound 149]
14100 nM |  |  | N=C(N)NCCC[C@H](NC(=O)[C@@H]1CCCN1C(=O)[C@H](Cc1cccnc1)NC(=O)c1ccc(Br)cc1)C(=O)CF [Compound 142]
1330 nM | 37 nM |  | N=C(N)NCCC[C@H](NC(=O)[C@@H]1CCCCN1C(=O)[C@@H](NC(=O)OCc1ccccc1)C1CCCCC1)C(=O)CF [Compound 108] (Cbz-[Chg]-[Pip]-Arg-CH2F)
> 20000 nM | 111 nM |  | CC(C)[C@H](NC(=O)c1csc(N2CCOCC2)n1)C(=O)N1CCC[C@H]1C(=O)N[C@@H](CCCNC(=N)N)C(=O)CF [Compound 128]
630 nM | 59 nM |  | CC(C)[C@H](NC(=O)c1ccc2cnccc2c1)C(=O)N1CCC[C@H]1C(=O)N[C@@H](CCCNC(=N)N)C(=O)CF [Compound 157]
550 nM | 24 nM |  | CC(C)[C@H](NC(=O)c1ccc(Cl)c(C#N)c1)C(=O)N1CCC[C@H]1C(=O)N[C@@H](CCCNC(=N)N)C(=O)CF [Compound 147]
> 20000 nM | 54 nM |  | CC(=O)Nc1cccc(C(=O)N[C@H](C(=O)N2CCC[C@H]2C(=O)N[C@@H](CCCNC(=N)N)C(=O)CF)C(C)C)c1 [Compound 133] (Ac-[3Abz]VPR-CH2F)
3690 nM | 39 nM |  | CC(C)[C@H](NC(=O)c1cccc(C#N)c1)C(=O)N1CCC[C@H]1C(=O)N[C@@H](CCCNC(=N)N)C(=O)CF [Compound 134]
520 nM | 27 nM |  | CC(C)[C@H](NC(=O)Nc1cccc(Cl)c1)C(=O)N1CCC[C@H]1C(=O)N[C@@H](CCCNC(=N)N)C(=O)CF [Compound 165]
160 nM | 102 nM |  | CC(C)[C@H](NC(=O)c1cccc2ccccc12)C(=O)N1CCC[C@H]1C(=O)N[C@@H](CCCNC(=N)N)C(=O)CF [Compound 153]
10500 nM | 158 nM |  | CC(C)[C@H](NC(=O)OCc1ccccc1)C(=O)N1CCC[C@@]1(C)C(=O)N[C@@H](CCCNC(=N)N)C(=O)CF [Compound 111] (Cbz-Val-[αMeP]-Arg-CH2F)
8050 nM | 154 nM |  | N=C(N)NCCC[C@H](NC(=O)[C@@H]1CCCN1C(=O)[C@@H](NC(=O)OCc1ccccc1)c1ccccc1)C(=O)CF [Compound 104] (Cbz-[Phg]-Pro-Arg-CH2F)
5490 nM | 93 nM |  | CC(C)C[C@H](NC(=O)OCc1ccccc1)C(=O)N1CCC[C@H]1C(=O)N[C@@H](CCCNC(=N)N)C(=O)CF [Compound 184] (Cbz-Leu-Pro-Arg-CH2F)
110 nM | 36 nM |  | CC(C)[C@H](NC(=O)/C=C/c1ccccc1)C(=O)N1CCC[C@H]1C(=O)N[C@@H](CCCNC(=N)N)C(=O)CF [Compound 154]
240 nM | 46 nM |  | N=C(N)NCCC[C@H](NC(=O)[C@H](CO)NC(=O)[C@@H](NC(=O)c1ccc(Br)cc1)C1CCCCC1)C(=O)CF [Compound 173]
> 20000 nM | 175 nM |  | CC(C)[C@H](NC(=O)c1cccc(N2CCN(C)CC2)c1)C(=O)N1CCC[C@H]1C(=O)N[C@@H](CCCNC(=N)N)C(=O)CF [Compound 132]
130 nM | 45 nM |  | N=C(N)NCCC[C@H](NC(=O)[C@@H]1CCCN1C(=O)[C@@H](NC(=O)c1ccc(Br)cc1)C1CCCCC1)C(=O)CF [Compound 143]
530 nM | 15 nM |  | CC(C)[C@H](NC(=O)c1cccc(OC(F)(F)F)c1)C(=O)N1CCC[C@H]1C(=O)N[C@@H](CCCNC(=N)N)C(=O)CF [Compound 148]
550 nM | 30 nM |  | CC(C)[C@H](NC(=O)c1ccc(-c2ccccc2)cc1)C(=O)N1CCC[C@H]1C(=O)N[C@@H](CCCNC(=N)N)C(=O)CF [Compound 137]
9650 nM |  |  | Cc1nc(C(=O)N[C@H](C(=O)N2CCC[C@H]2C(=O)N[C@@H](CCCNC(=N)N)C(=O)CF)C(C)C)cs1 [Compound 125]
1670 nM | 50 nM |  | COc1ccc(C(=O)N[C@H](C(=O)N2CCC[C@H]2C(=O)N[C@@H](CCCNC(=N)N)C(=O)CF)C(C)C)cc1 [Compound 123]

GI50 (OCI-LY3; Homo sapiens) | Ki (MALT1) | GI50 (OCI-LY3) | SMILES
770 nM | 118 nM |  | CC(C)[C@H](NC(=O)c1ccc(Br)cc1)C(=O)N1CC[C@H]1C(=O)N[C@@H](CCCNC(=N)N)C(=O)CF [Compound 176]
500 nM |  |  | CC(C)[C@H](NC(=O)c1ccc(Br)c(C#N)c1)C(=O)N1CCC[C@H]1C(=O)N[C@@H](CCCNC(=N)N)C(=O)CF [Compound 146]
910 nM | 346 nM |  | CC(C)[C@H](NC(=O)c1ccc(F)cc1)C(=O)N1CCC[C@H]1C(=O)N[C@H](CCCNC(=N)N)C(=O)CF [Compound 161]
810 nM | 71 nM |  | CC(C)[C@H](NC(=O)c1ccc(Br)cc1F)C(=O)N1CCC[C@H]1C(=O)N[C@@H](CCCNC(=N)N)C(=O)CF [Compound 179]
780 nM | 62 nM |  | CC(C)[C@H](NC(=O)Nc1ccc(Cl)cc1)C(=O)N1CCC[C@H]1C(=O)N[C@@H](CCCNC(=N)N)C(=O)CF [Compound 164]
2910 nM | 46 nM |  | CC(C)[C@H](NC(=O)Cc1cccc(Br)c1)C(=O)N1CCC[C@H]1C(=O)N[C@@H](CCCNC(=N)N)C(=O)CF [Compound 118]
570 nM | 55 nM |  | CC(C)[C@H](NC(=O)c1ccc2ccccc2n1)C(=O)N1CCC[C@H]1C(=O)N[C@@H](CCCNC(=N)N)C(=O)CF [Compound 155]
1240 nM | 67 nM |  | CC(C)[C@H](NC(=O)c1ccc(Cl)cc1)C(=O)N1CCC[C@H]1C(=O)N[C@@H](CCCNC(=N)N)C(=O)CF [Compound 136]
120 nM | 132 nM |  | CC(C)[C@H](NC(=O)c1ccc(C(F)(F)F)cc1)C(=O)N1CCC[C@H]1C(=O)N[C@@H](CCCNC(=N)N)C(=O)CF [Compound 135]
3370 nM | 42 nM |  | CC(C)[C@H](NC(=O)Cc1ccccc1)C(=O)N1CCC[C@H]1C(=O)N[C@@H](CCCNC(=N)N)C(=O)CF [Compound 117] (PhAc-Val-Pro-Arg-CH2F)
660 nM | 40 nM |  | CC(C)[C@H](NC(=O)c1ccccc1)C(=O)N1CCC[C@H]1C(=O)N[C@@H](CCCNC(=N)N)C(=O)CF [Compound 113] (Bz-Val-Pro-Arg-CH2F)
60 nM |  |  | N=C(N)NCCC[C@H](NC(=O)[C@@H]1C[C@@H](O)CN1C(=O)[C@@H](NC(=O)c1ccc(Br)cc1)C1CCCCC1)C(=O)CF [Compound 172]
 | > 200 nM |  | CN[C@H](C(=O)N1CCC[C@H]1C(=O)N[C@@H](CCCNC(=N)N)C(=O)CF)C(C)C [Compound 205] (H-[NMeV]-Pro-Arg-CH2F)
3720 nM |  |  | CC(C)[C@H](NS(=O)(=O)c1ccc(Br)cc1)C(=O)N1CCC[C@H]1C(=O)N[C@@H](CCCNC(=N)N)C(=O)CF [Compound 130]
 |  | > 5000 nM | CC(C)[C@H](NC(=O)OCc1ccccc1)C(=O)N1CCC[C@H]1C(=O)N[C@@H](CCCNC1=NCCN1)C(=O)CF [Compound 201]
 | 557 nM |  | CC(C)[C@H](NC(=O)Nc1cccc(Cl)c1)C(=O)N1CCC[C@H]1C(=O)N[C@H](CCCNC(=N)N)C(=O)CF [Compound 166]
1240 nM |  |  | CC(C)[C@H](NC(=O)c1ccc(Br)s1)C(=O)N1CCC[C@H]1C(=O)N[C@@H](CCCNC(=N)N)C(=O)CF [Compound 138]
 | 122 nM |  | N=C(N)NCCC[C@H](NC(=O)[C@@H]1CCCN1C(=O)[C@H](CC1CCCCC1)NC(=O)c1ccc(Br)cc1)C(=O)CF [Compound 187]
 | 32 nM |  | CC(C)[C@H](NC(=O)OCc1ccc(Cl)cc1)C(=O)N1CCC[C@H]1C(=O)N[C@@H](CCCNC(=N)N)C(=O)CF [Compound 168]
 | 27 nM |  | CC(C)[C@H](NC(=O)OCc1ccccc1Cl)C(=O)N1CCC[C@H]1C(=O)N[C@@H](CCCNC(=N)N)C(=O)CF [Compound 170] (ClZ-Val-Pro-Arg-CH2F)
270 nM |  |  | CC(C)c1ccc(C(=O)N[C@H](C(=O)N2CCC[C@H]2C(=O)N[C@@H](CCCNC(=N)N)C(=O)CF)C(C)C)cc1 [Compound 163]
 | 28 nM |  | CC(C)[C@H](NC(=O)c1ccc(Br)cc1)C(=O)N1C[C@H](C#N)C[C@H]1C(=O)N[C@@H](CCCNC(=N)N)C(=O)CF [Compound 177]
 | 22 nM |  | CC(C)[C@H](NC(=O)OCc1cccc(Cl)c1)C(=O)N1CCC[C@H]1C(=O)N[C@@H](CCCNC(=N)N)C(=O)CF [Compound 169]
 | 38 nM |  | CC(C)[C@H](NC(=O)c1ccc(Br)cc1)C(=O)N[C@@H](C)C(=O)N[C@@H](CCCNC(=N)N)C(=O)CF [Compound 178]
 | 47 nM |  | CC(C)[C@H](NC(=O)c1ccc2ccccc2c1)C(=O)N1CCC[C@H]1C(=O)N[C@@H](CCCNC(=N)N)C(=O)CF [Compound 152]
